Consider 43 compounds from patent publication US20220235065A1 (Epizyme, Inc., priority 2016, published 2022).

SMILES strings stand for the structures.

For one assay, the target named is T1, EHMT1 (Homo sapiens, UniProt Q9H9B1).
T1 sequence (Q9H9B1 1-1298): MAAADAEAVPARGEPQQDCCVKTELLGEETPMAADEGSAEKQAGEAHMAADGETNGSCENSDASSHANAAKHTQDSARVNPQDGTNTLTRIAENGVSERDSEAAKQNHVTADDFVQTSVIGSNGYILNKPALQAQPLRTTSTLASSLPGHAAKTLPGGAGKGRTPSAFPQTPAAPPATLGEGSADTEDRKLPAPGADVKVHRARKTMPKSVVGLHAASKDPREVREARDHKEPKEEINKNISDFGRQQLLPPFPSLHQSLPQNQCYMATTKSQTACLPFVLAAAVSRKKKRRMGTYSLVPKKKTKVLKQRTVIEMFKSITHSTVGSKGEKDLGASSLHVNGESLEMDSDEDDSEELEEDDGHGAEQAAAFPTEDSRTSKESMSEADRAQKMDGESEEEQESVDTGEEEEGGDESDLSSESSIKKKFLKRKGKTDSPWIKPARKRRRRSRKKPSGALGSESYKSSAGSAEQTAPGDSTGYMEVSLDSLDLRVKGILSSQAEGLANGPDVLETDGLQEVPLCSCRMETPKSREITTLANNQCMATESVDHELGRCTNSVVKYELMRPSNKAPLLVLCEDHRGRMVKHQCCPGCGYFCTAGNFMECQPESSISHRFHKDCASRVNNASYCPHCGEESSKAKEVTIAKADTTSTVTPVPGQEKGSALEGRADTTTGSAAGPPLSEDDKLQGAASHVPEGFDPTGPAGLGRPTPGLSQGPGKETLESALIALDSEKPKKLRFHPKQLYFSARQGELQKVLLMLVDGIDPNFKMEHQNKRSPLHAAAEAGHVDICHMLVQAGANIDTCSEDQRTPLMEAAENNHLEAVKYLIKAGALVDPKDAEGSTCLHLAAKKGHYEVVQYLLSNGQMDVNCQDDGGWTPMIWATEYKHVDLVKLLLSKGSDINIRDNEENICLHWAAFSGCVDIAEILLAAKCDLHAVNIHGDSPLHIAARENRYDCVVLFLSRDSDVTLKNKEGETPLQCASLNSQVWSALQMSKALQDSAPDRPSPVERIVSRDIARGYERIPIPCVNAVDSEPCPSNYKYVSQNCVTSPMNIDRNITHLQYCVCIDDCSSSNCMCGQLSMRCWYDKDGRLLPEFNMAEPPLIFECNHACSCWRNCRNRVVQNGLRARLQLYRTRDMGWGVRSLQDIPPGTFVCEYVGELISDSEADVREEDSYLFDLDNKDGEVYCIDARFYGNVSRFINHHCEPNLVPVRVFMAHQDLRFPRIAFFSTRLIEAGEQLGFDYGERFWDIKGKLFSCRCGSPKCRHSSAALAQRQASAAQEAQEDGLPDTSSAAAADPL
The assay is described as follows: EHMT1 PEP (EHMT1 peptide enzyme assay). In kind it is biochemical. Particulars: peptide substrate enzyme assay.

Assay [1] deals with T2, recombinant purified human EHMT2 913-1193 (Homo sapiens, UniProt Q96KQ7).
T2 construct: Recombinant purified human EHMT2 913-1193 (55 μM) synthesized by Viva was used for all experiments; purchased Viva
T2 sequence (Q96KQ7 913-1193): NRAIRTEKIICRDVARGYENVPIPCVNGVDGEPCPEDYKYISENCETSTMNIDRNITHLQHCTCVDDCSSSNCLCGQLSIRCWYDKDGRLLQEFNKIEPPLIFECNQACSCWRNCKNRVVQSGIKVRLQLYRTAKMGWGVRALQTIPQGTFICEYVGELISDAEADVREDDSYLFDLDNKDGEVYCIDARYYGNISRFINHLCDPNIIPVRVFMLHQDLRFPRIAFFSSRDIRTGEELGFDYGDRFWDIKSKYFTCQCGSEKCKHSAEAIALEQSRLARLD
Put plainly: EHMT2 enzyme assay on histone peptide substrate (3H-SAM Flashplate). In kind it is biochemical. The following applies: read-out: EHMT2 PEP (IC50 μM). The gist of the method:
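Compounds (10-point 3-fold series, top 50 μM final, 2% DMSO) preincubated 30 min with 0.031 nM EHMT2 in 20 mM Bicine pH 7.5, 1 mM TCEP; reaction started with 3H-SAM and biotinylated H3 1-15 peptide, both at Km, run 60 min at room temperature. Flashplate capture; IC50 from four-parameter fit, triplicates.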

The IC50 is the midpoint of a concentration-inhibition curve. Regarding `CNc1cc(C)nc(Nc2ccc(C)c(-c3cc4ccccc4[nH]3)c2)n1` [Compound 274], the IC50 is 1 to 10 µM on EHMT1 and above 10 µM in assay [1].
Consider `CCNc1c[nH]c(=O)c(-c2cc(Nc3nc(C)cc(NC)n3)ccc2C)c1` [Compound 276], for which the IC50 (on EHMT1; in assay [1]) was 1 to 10 µM throughout.
For `CNc1nc2cc(-c3cc4ccncc4[nH]3)c(C)cc2n1C` [Compound 278], the IC50 (on EHMT1; in assay [1]) was below 0.1 µM throughout.
For `CNc1cc(C)nc(Nc2ccc(C)c(-c3nc4ccncc4[nH]3)c2)n1` [Compound 279], the IC50 (at EHMT1; in assay [1]) was below 0.1 µM each time.
Take `CNc1cc(C)nc(Nc2ccc(C)c(C(=O)Nc3cscn3)c2)n1` [Compound 280]: the IC50 is 1 to 10 µM on EHMT1 and above 10 µM in assay [1].
For the compound `CNc1cc(C)nc(Nc2ccc(C)c(-n3cc4cnccc4n3)c2)n1` [Compound 282], the IC50 (against EHMT1; in assay [1]) was below 0.1 µM in each case.
As to `CNCc1cnn(-c2cc(Nc3nc(C)cc(NC)n3)ccc2OC)c1` [Compound 285], the IC50 (at EHMT1; in assay [1]) was below 0.1 µM throughout.
In the case of `CNCc1cnn(-c2cc(Nc3nc(C)cc(NC)n3)ccc2C)c1` [Compound 286, N4,6-dimethyl-N2-(4-methyl-3-(4-((methylamino)methyl)-1H-pyrazol-1-yl)phenyl)pyrimidine-2,4-diamine], the IC50 (on EHMT1; in assay [1]) was below 0.1 µM throughout.
For the compound `CNc1cc(C)nc(Nc2ccc(C)c(C(=O)Nc3cnccn3)c2)n1` [Compound 287], the results for the IC50 (against EHMT1; in assay [1]) were 0.1 to 1 µM and 1 to 10 µM, respectively.
Taken in the same sequence, the figures for `CNc1cc(C)nc(Nc2ccc(OC)c(-c3[nH]c4cnccc4c3C#N)c2)n1` [Compound 291] were 1 to 10 µM and 1 to 10 µM.
The corresponding values for `CNc1cc(C)nc(Nc2ccc(OC)c(-c3cc4[nH]ccc4c(C#N)n3)c2)n1` [Compound 292] are below 0.1 µM and 0.1 to 1 µM.
Taken in the same sequence, the figures for `CNc1cc(C)nc(Nc2ccc(OC)c(-c3cc4[nH]ccc4c(CNC(C)=O)n3)c2)n1` [Compound 293] were below 0.1 µM and 0.1 to 1 µM.
Take `CNC1=Nc2cc(-c3cnc4cc[nH]c4c3)c(OC)cc2C12CCC2` [Compound 294]: the half-maximal inhibitory concentration (IC50) (against EHMT1; in assay [1]) was below 0.1 µM throughout.
Turning to `CNc1nc2cc(-c3cnc4cc[nH]c4c3)c(OC)cc2n1C` [Compound 295], the IC50 is 0.1 to 1 µM on EHMT1 and 1 to 10 µM in assay [1].
Taken in the same sequence, the figures for `CNc1cc(C)nc(Nc2ccc(OC)c(-c3cc4[nH]ccc4c(CN)n3)c2)n1` [Compound 296] were below 0.1 µM and 0.1 to 1 µM.
The corresponding values for `CNc1cc(C)nc(Nc2ccc(C)c(C(=O)Nc3cn(C)nn3)c2)n1` [Compound 299] are 1 to 10 µM and above 10 µM.
Taken in the same sequence, the figures for `CNC1=Nc2cc(-c3cc4[nH]ccc4nc3C)c(OC)cc2C12CCC2` [Compound 300] were below 0.1 µM and 0.1 to 1 µM.
As to `CNc1cc(C)nc(Nc2ccc(C)c(C(=O)Nc3cn(C)cn3)c2)n1` [Compound 302], the IC50 (against EHMT1; in assay [1]) was above 10 µM in each case.
Turning to `CNc1nc2cc(-c3[nH]c4cnccc4c3C)c(OC)cc2n1C` [Compound 304], the IC50 (on EHMT1; in assay [1]) was 0.1 to 1 µM each time.
`COc1cc(NC2CCNC2)ccc1-c1[nH]c2cnccc2c1C` (centres unmarked) [Compound 305]: the IC50 was 1 to 10 µM against EHMT1 and 0.1 to 1 µM in assay [1].
In the case of `CNc1cc(C)nc(Nc2ccc(OC)c(-c3nccc(NC)n3)c2)n1` [Compound 306], the IC50 (against EHMT1; in assay [1]) was 1 to 10 µM throughout.
With `CNCc1cnn(-c2c(F)ccc(Nc3nc(C)cc(NC)n3)c2F)c1` [Compound 307], the IC50 (at EHMT1; in assay [1]) was below 0.1 µM each time.
For the compound `CNC1=Nc2cc(-c3cc4[nH]ccc4c(C(N)=O)n3)c(OC)cc2C12CCC2` [Compound 308], the IC50 against EHMT1 lay in the range of 0.1 to 1 µM; in assay [1], 1 to 10 µM.
Consider `COc1cc2c(cc1-c1cc3[nH]ccc3cn1)N=C(NCC(N)=O)C21CCC1` [Compound 309], for which the half-inhibitory concentration (IC50) was in the range of 0.1 to 1 µM on EHMT1 and 1 to 10 µM in assay [1].
Taken in the same sequence, the figures for `COc1cc(NC2CCNCC2)ccc1-c1[nH]c2cnccc2c1C` [Compound 310] were 1 to 10 µM and 1 to 10 µM.
The corresponding values for `CNc1cc(C)nc(Nc2cnc(C)c(-c3cc4ccncc4[nH]3)c2)n1` [Compound 311] are above 10 µM and above 10 µM.
Take `CNCc1ccnc(-c2cc(Nc3nc(C)cc(NC)n3)ccc2OC)c1` [Compound 313]: the IC50 (at EHMT1; in assay [1]) was 0.1 to 1 µM in each case.
For `CNC1=Nc2cc(-n3cc(CN4CCC4)cn3)c(OC)cc2C12CCC2` [Compound 314], the IC50 (at EHMT1; in assay [1]) was below 0.1 µM each time.
Consider `CNc1cc(C)nc(Nc2ccc(F)c(-n3cc(CN4CCC4)cn3)c2F)n1` [Compound 315], for which the IC50 (against EHMT1; in assay [1]) was 0.1 to 1 µM throughout.
For `CNc1cc(C)nc(Nc2ccc(OC)c(-c3[nH]c4cnccc4c3CNC(C)=O)c2)n1` [Compound 316], the IC50 (against EHMT1; in assay [1]) was below 0.1 µM in each case.
For the compound `CNCc1cnn(-c2c(OC)ccc(Nc3nc(C)cc(NC)n3)c2F)c1` [Compound 317, N2-(2-fluoro-4-methoxy-3-(4-((methylamino)methyl)-1H-pyrazol-1-yl)phenyl)-N4,6-dimethylpyrimidine-2,4-diamine], the IC50 (against EHMT1; in assay [1]) was below 0.1 µM throughout.
On to `CNCc1cnn(-c2c(F)ccc(Nc3nc(C)cc(NC)n3)c2OC)c1` [Compound 318], for which the IC50 (on EHMT1; in assay [1]) was 0.1 to 1 µM each time.
Turning to `CNCc1cnn(-c2cc(Nc3nc(C)cc(NC)n3)ccc2Br)c1` [Compound 319], the IC50 (on EHMT1; in assay [1]) was below 0.1 µM throughout.
Turning to `CCc1ccc(Nc2nc(C)cc(NC)n2)cc1-n1cc(CNC)cn1` [Compound 320], the IC50 (on EHMT1; in assay [1]) was below 0.1 µM throughout.
In the case of `CNc1cc(C)nc(Nc2ccc(OC)c(-n3cc(C4CCCN4)cn3)c2)n1` (centres unmarked) [Compound 321], the concentration for half-maximal inhibition (IC50) (at EHMT1; in assay [1]) was below 0.1 µM throughout.
Turning to `CNC1=Nc2cc(-n3cc(C4CCCN4)cn3)c(OC)cc2C12CCC2` (centres unmarked) [Compound 322], the IC50 (against EHMT1; in assay [1]) was below 0.1 µM each time.
Take `CNCc1cn(-c2cc(Nc3nc(C)cc(NC)n3)ccc2OC)nc1F` [Compound 323]: the IC50 (against EHMT1; in assay [1]) was below 0.1 µM in each case.
For `CNCc1cc(-c2cc(Nc3nc(C)cc(NC)n3)ccc2OC)on1` [Compound 324], the IC50 (on EHMT1; in assay [1]) was 0.1 to 1 µM in each case.
Turning to `CNCc1cnn(-c2cc(Nc3nc(C)cc(NC)n3)ccc2C(F)(F)F)c1` [Compound 325], the IC50 (at EHMT1; in assay [1]) was below 0.1 µM throughout.
Take `CNC1=Nc2cc(-n3cc(C4CCCN4)cn3)c(Cl)cc2C12CCC2` (centres unmarked) [Compound 326]: the IC50 (at EHMT1; in assay [1]) was below 0.1 µM each time.
With `CNCc1cnn(-c2c(Cl)ccc(Nc3nc(C)cc(NC)n3)c2Cl)c1` [Compound 327], the IC50 (against EHMT1; in assay [1]) was below 0.1 µM in each case.
As to `CNCc1cnn(-c2c(Cl)ccc(Nc3nc(C)cc(NC)n3)c2F)c1` [Compound 328], the IC50 (on EHMT1; in assay [1]) was below 0.1 µM in each case.
`CNCc1cnn(-c2c(F)ccc(Nc3nc(C)cc(NC)n3)c2Cl)c1` [Compound 329]: the IC50 (at EHMT1; in assay [1]) was below 0.1 µM throughout.
